Measured values published in PMC5071372, “Combining biophysical methods to analyze the disulfide bond in SH2 domain of C-terminal Src kinase” (Biophysics Reports, 2016).
Square brackets hold non-standard residues; d marks the D form. Peptide text beside a SMILES is read from it. pY = N[C@@H](Cc1ccc(OP(=O)(O)O)cc1)C(=O)O

What was measured:
reduced Csk L-SH2 = target: T1, reduced Csk L-SH2 (Homo sapiens, UniProt P41240); assay: Fluorescence titration of reduced Csk L-SH2 with Cbp peptide; format: binding; details: 10-residue Cbp peptide, Csk SH2, redox form not given
T1 construct: made in house
T1 sequence (P41240 73-178): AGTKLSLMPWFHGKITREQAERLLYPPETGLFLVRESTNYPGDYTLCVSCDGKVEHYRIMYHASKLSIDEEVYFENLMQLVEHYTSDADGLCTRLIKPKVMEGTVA
Method: Fluorescence titrations were performed at 25 °C in 3 mL of 50 mmol/L Tris-HCl (pH 7.5) using excitation and emission wavelengths of 288 nm and 320 nm, respectively. The 10-residue synthetic phosphopeptide corresponding to the specific SH2-binding site in Cbp was titrated with the L-SH2 sample. The typically adopted protein concentration is 5 μmol/L. For the denaturation experiments, ultrapure guanidine hydrochloride (Sigma S0933) was used. Proteins were exposed to guanidine hydrochloride concentrations ranging from 0 to 6 mol/L at 0.1–0.2 mol/L steps. The concentrations of guanidine hydrochloride of the solutions were determined by measuring the index of refraction and by using the following equation: d/d 0 = 1 + 0.2710 W + 0.0330 W ^2 (Tanford et al. [1966]), where W is the weight fraction of guanidine hydrochloride in the solution, d is the density of the solution, and d 0 is the density of water. Reversibility of the guanidine hydrochloride-induced unfolding reaction and the time necessary to re-establish equilibrium were determined by diluting a concentrated protein solution containing 6 mol/L guanidine hydrochloride into the buffer and by monitoring the fluorescence spectrum of the protein as a function of time. […] F unf values were calculated from the linear extrapolation of the pre- and post-unfolding baselines. […]

full-length Csk = details: ref Kemble and Sun [2009]; cited from earlier work
Text: Disulfide bonds are mostly found in secretory proteins and in extracellular domains of membrane proteins. Cytosolic proteins, which contain cysteine residues that are in close proximity to each other, may function as oxidation sensors; when the reductive potential of the cell fails, they oxidize and trigger cellular response mechanisms (Sevier and Kaiser [2002]). Mills et al. studied the unique disulfide bond of Csk SH2 that is absent in other known SH2 domains.

Csk L-SH2 disulfide bond = assay: NMR-monitored reduction of oxidized SH2 by DTT; format: physicochemical, human; details: 10 mmol/L DTT, pH 7.5, NMR
Text: During purification of the Csk L-SH2 domain, 50 mmol/L DTT was used to elute the protein from the chitin resin. The L-SH2 was used in reduced form, given that DTT was used to cleave L-SH2 from its intein fusion partner. Following elution of the protein from the ion exchange column, the L-SH2 became a mixture of the reduced and oxidized forms. The fully oxidized form was obtained by exposing the protein to air for several days.
Fig. 3 Comparison of the oxidized and reduced form of SH2. A Comparison of ^1H–^15N HSQC of oxidized (red) and reduced (green) SH2. B Combined chemical shift change of oxidized and reduced form SH2. The difference was calculated as ∆δ tot = [(∆δ H)^2 + (0.154∆δ N)^2]^1/2. […]
All NMR experiments were performed at 298 K on 800 MHz spectrometers equipped with triple-resonance cryoprobes. […] The combined change in chemical shift of a particular residue upon ligation with the kinase domain was calculated as ∆δ = [(∆δ H)^2 + (0.154∆δ N)^2]^1/2, where ∆δ H and ∆δ N correspond to the changes in amide proton and nitrogen chemical shift, respectively. The weight factor for ^1H and ^15N is determined from the ratio of the average variances of the amide nitrogen and proton chemical shifts observed for the 20 common amino acid residues in proteins deposited in the BioMagResBank (Mulder et al. [1999]). […]

## CC[C@H](C)[C@H](N)C(=O)N[C@@H](CO)C(=O)N[C@@H](C)C(=O)N[C@@H](CCSC)C(=O)N[C@@H](Cc1ccc(OP(=O)(O)O)cc1)C(=O)N[C@@H](CO)C(=O)N[C@@H](CO)C(=O)N[C@H](C(=O)N[C@@H](CC(N)=O)C(=O)N[C@@H](CCCCN)C(=O)O)C(C)C [Cbp peptide] (H-ISAM[pY]SSVNK-OH)
Reduced Csk L-SH2
  affinity of Cbp peptide for Csk SH2 (in words): affinity at the µmol/L level

## O[C@@H](CS)[C@@H](O)CS [DTT, reference compound]
full-length Csk
  activation of Csk: mildly activated
Csk L-SH2 disulfide bond
  time sufficient to reduce the SH2 domain: ≤ 10 h
